Laboratory results from patent US20040086901A1, “Database for analyzing gene function and method of analyzing gene function by dspa” (priority 2000, published 2004).

How the values were obtained:
Assay type in all cases: cell-based, mouse
[1] = test system: NIH3T3 cells overexpressing STAT1; test: MTT cell viability, STAT1 overexpressing cells vs parental line; conditions: STAT1 high-expressing cells / parental cell line, 3 to 4 days
Procedure: (§1) With regard to the function-known genes, the genes shown in the left column of Table 2 were used. With regard to the drugs, those shown in Table 1 were dissolved in DMSO to an extent of 100-fold of the maximum concentration for the search of the drugs and used. With regard to the cells, incubated NIH3T3 or ras-NIH3T3 cells were used.
(§2) Full-length cDNA of each function-known genes was incorporated into an expression vector (pRc-CMV, etc.) and transfected into NIH3T3 cells by a common method. Transformed cells were isolated using the resistance to G-418 as an index and the expression of the transfected gene in each cell was investigated by Western blotting method to select a highly expressing line.
(§3) Cell viabilities were measured according to the following procedures.
(§4) 1) From the 2nd to the 11th rows of a 96-well plate were filled with DMEM (50 μl). The 12th row was filled with 100 μl of DMEM.
(§5) 2) The 1st row was filled with 98 μl of DMEM.
(§6) 3) Drugs (2 μl each) were added into the 1st row.
(§7) 4) Continuous double-dilution was conducted from the 1st to the 9th rows. Fifty μl were taken out from the 9th row and discarded. The plate was preserved in a CO2 incubator.
(§8) 5) Cells (each high-expressing cells and the parental cell line) were detached from the medium using a trypsin solution, suspended in 10% CS-DMEM and transferred to a test tube and cell numbers (cell/ml) were counted.
(§9) 6) The cells were diluted to a concentration of 1×10^5 cells/ml, and 50 μl of the cell suspension were added to the 1st to the 11th rows of the plate followed by gently stirring.
(§10) 7) The plate was transferred to the CO2 incubator and incubated for 3 to 4 days.
(§11) 8) MTT (5 mg/ml in PBS) (10 μl) was added to the 1st to the 12th rows of the plate and incubated in the CO2 incubator at 37° C. for 4 hours.
(§12) 9) A reaction stop solution (0.04N HCl in isopropanol) (150 μl) was added followed by mixing well and being allowed to stand at room temperature for about 2 hours.
(§13) 10) Coloration of formazan which was a metabolite of the MTT dye was measured using a microplate reader. The measurement wavelength was 574 nm and the reference wavelength was 655 nm. The 10th and the 11th rows of the plate were 100% controls and the 12th row was a 0% control.
(§14) As an index for the sensitivity of highly gene-expressing cells and the parental cell line to various drugs, each of the IC40 values thereof was specified and ratios of the IC40 values were calculated. […] After that, logarithmic values of ratios of IC40 values were calculated from each gene.

[2] = test system: NIH3T3 cells overexpressing coup; test: MTT cell viability, coup overexpressing cells vs parental line; conditions: coup high-expressing cells / parental cell line, 3 to 4 days
Procedure: as §1, §2, §3, §4, §5, §6, §7, §8, §9, §10, §11, §12, §13
(§15) As an index for the sensitivity of highly gene-expressing cells and the parental cell line to various drugs, each of the IC40 values thereof was specified and ratios of the IC40 values were calculated. FIG. 2 and FIG. 3 are the examples where ratios of IC40 values were calculated from a curve showing the dependency on the concentration of the chemical versus the viability. After that, logarithmic values of ratios of IC40 values were calculated from each gene.

[3] = test system: NIH3T3 cells overexpressing Ha-ras; test: MTT cell viability, drug sensitivity of Ha-ras overexpressing cells vs parental line; conditions: Ha-ras high-expressing cells / parental cell line, 3 to 4 days
Procedure: as §1, §2, §3, §4, §5, §6, §7, §8, §9, §10, §11, §12, §13, §14

[4] = test system: NIH3T3 cells overexpressing p16/INK4A; test: MTT cell viability, p16/INK4A overexpressing cells vs parental line; conditions: p16/INK4A high-expressing cells / parental cell line, 3 to 4 days
Procedure: as §1, §2, §3, §4, §5, §6, §7, §8, §9, §10, §11, §12, §13, §15

[5] = test system: NIH3T3 cells overexpressing N-ras; test: MTT cell viability, N-ras overexpressing cells vs parental line; conditions: N-ras high-expressing cells / parental cell line, 3 to 4 days
Procedure: as §1, §2, §3, §4, §5, §6, §7, §8, §9, §10, §11, §12, §13, §15

[6] = test system: NIH3T3 cells overexpressing TK; test: MTT cell viability, TK overexpressing cells vs parental line; conditions: TK high-expressing cells / parental cell line, 3 to 4 days
Procedure: as §1, §2, §3, §4, §5, §6, §7, §8, §9, §10, §11, §12, §13, §15

[7] = test system: NIH3T3 cells overexpressing calpastatin; test: MTT cell viability, calpastatin overexpressing cells vs parental line; conditions: calpastatin high-expressing cells / parental cell line, 3 to 4 days
Procedure: as §1, §2, §3, §4, §5, §6, §7, §8, §9, §10, §11, §12, §13, §15

[8] = test system: NIH3T3 cells overexpressing p53(wt); test: MTT cell viability, p53(wt) overexpressing cells vs parental line; conditions: p53(wt) high-expressing cells / parental cell line, 3 to 4 days
Procedure: as §1, §2, §3, §4, §5, §6, §7, §8, §9, §10, §11, §12, §13, §14

[9] = test system: NIH3T3 cells overexpressing Bax; test: MTT cell viability, Bax overexpressing cells vs parental line; conditions: 3 to 4 days
Procedure: as §1, §2, §3, §4, §5, §6, §7, §8, §9, §10, §11, §12, §13, §14

[10] = test system: NIH3T3 cells overexpressing caspase-2; test: MTT cell viability, caspase-2 overexpressing cells vs parental line; conditions: caspase-2 high-expressing cells / parental cell line, 3 to 4 days
Procedure: as §1, §2, §3, §4, §5, §6, §7, §8, §9, §10, §11, §12, §13, §15

[11] = test system: NIH3T3 cells overexpressing Regucalcin; test: MTT cell viability, Regucalcin overexpressing cells vs parental line; conditions: Regucalcin high-expressing cells / parental cell line, 3 to 4 days
Procedure: as §1, §2, §3, §4, §5, §6, §7, §8, §9, §10, §11, §12, §13, §15

[12] = test system: NIH3T3 cells overexpressing PDGF-R-Del; test: MTT cell viability, PDGF-R-Del overexpressing cells vs parental line; conditions: PDGF-R-Del high-expressing cells / parental cell line, 3 to 4 days
Procedure: as §1, §2, §3, §4, §5, §6, §7, §8, §9, §10, §11, §12, §13, §15

[13] = test system: NIH3T3 cells overexpressing C/EBPa; test: MTT cell viability, C/EBPa overexpressing cells vs parental line; conditions: C/EBPa high-expressing cells / parental cell line, 3 to 4 days
Procedure: as §1, §2, §3, §4, §5, §6, §7, §8, §9, §10, §11, §12, §13, §14

[14] = test system: NIH3T3 cells overexpressing C/EBPb; test: MTT cell viability, C/EBPb overexpressing cells vs parental line; conditions: C/EBPb high-expressing cells / parental cell line, 3 to 4 days
Procedure: as §1, §2, §3, §4, §5, §6, §7, §8, §9, §10, §11, §12, §13, §14

[15] = test system: NIH3T3 cells overexpressing caspase-3; test: MTT cell viability, caspase-3 overexpressing cells vs parental line; conditions: caspase-3 high-expressing cells / parental cell line, 3 to 4 days
Procedure: as §1, §2, §3, §4, §5, §6, §7, §8, §9, §10, §11, §12, §13, §14

[16] = test system: NIH3T3 cells overexpressing HSP9O; test: MTT cell viability, HSP9O overexpressing cells vs parental line; conditions: HSP9O high-expressing cells / parental cell line, 3 to 4 days
Procedure: as §1, §2, §3, §4, §5, §6, §7, §8, §9, §10, §11, §12, §13, §15

[17] = test system: NIH3T3 cells overexpressing cystatin alpha; test: MTT cell viability, cystatin alpha overexpressing cells vs parental line; conditions: cystatin alpha high-expressing cells / parental cell line, 3 to 4 days
Procedure: as §1, §2, §3, §4, §5, §6, §7, §8, §9, §10, §11, §12, §13, §15

[18] = test system: NIH3T3 cells overexpressing p33/ING1; test: MTT cell viability, p33/ING1 overexpressing cells vs parental line; conditions: p33/ING1 high-expressing cells / parental cell line, 3 to 4 days
Procedure: as §1, §2, §3, §4, §5, §6, §7, §8, §9, §10, §11, §12, §13, §15

[19] = test system: NIH3T3 cells overexpressing JNK-DN; test: MTT cell viability, JNK-DN overexpressing cells vs parental line; conditions: JNK-DN high-expressing cells / parental cell line, 3 to 4 days
Procedure: as §1, §2, §3, §4, §5, §6, §7, §8, §9, §10, §11, §12, §13, §15

[20] = test system: NIH3T3 cells overexpressing Ki-ras; test: MTT cell viability, Ki-ras overexpressing cells vs parental line; conditions: Ki-ras high-expressing cells / parental cell line, 3 to 4 days
Procedure: as §1, §2, §3, §4, §5, §6, §7, §8, §9, §10, §11, §12, §13, §15

[21] = Bax (first of two Bax lines) high-expressing cells / parental cell line
[22] = Bax (second of two Bax lines) high-expressing cells / parental cell line

Row | Molecule | logarithmic value of ratio of IC40 values [1] | logarithmic value of ratio of IC40 values [2] | logarithmic value of ratio of IC40 values [3] | logarithmic value of ratio of IC40 values [4] | logarithmic value of ratio of IC40 values [5] | logarithmic value of ratio of IC40 values [6] | logarithmic value of ratio of IC40 values [7] | logarithmic value of ratio of IC40 values [8] | logarithmic value of ratio of IC40 values [9, 21] | logarithmic value of ratio of IC40 values [9, 22] | logarithmic value of ratio of IC40 values [10] | logarithmic value of ratio of IC40 values [11] | logarithmic value of ratio of IC40 values [12] | logarithmic value of ratio of IC40 values [13] | logarithmic value of ratio of IC40 values [14] | logarithmic value of ratio of IC40 values [15] | logarithmic value of ratio of IC40 values [17] | logarithmic value of ratio of IC40 values [18] | logarithmic value of ratio of IC40 values [19] | logarithmic value of ratio of IC40 values [20] | also measured
1 | ICE inhibitor-III [ICEin-3] | 0.09 | −0.11 | 0.32 | 0.15 | 0.38 | −0.15 | −0.088 | 0.23 | −0.12 | 0.00 | 0.04 | 0.00 | 0.00 | −0.46 | 0.35 | 0.13 | 0.32 | −0.15 | 0.00 | 0.30 | logarithmic value of ratio of IC40 values [16]: 0.22
2 | C=CC1=C(C)c2cc3[n-]c(cc4nc(cc5[n-]c(cc1n2)c(C)c5CCC(=O)O)C(CCC(=O)O)=C4C)c(C)c3C=C.[Cl-].[Cl-].[Sn+4] [SnPP] | 0.08 | 0.51 | 0.28 | −0.05 | 0.14 | 0.00 | 0.486 | −0.18 | 0.17 | 0.10 | −0.33 | 0.32 | 0.08 | 0.00 | −0.50 | −0.40 | 0.00 | −0.23 | −0.11 | 0.18 | 
3 | O=CN/C=C/c1cc(O)ccc1O [Erbstatin, erbstatin] | 0.04 | 0.33 | 0.08 | 0.51 | −0.22 | 0.05 | −0.2 | 0.17 | 0.27 | 0.04 | −0.07 | 0.00 | 0.00 | 0.11 | 0.48 | −0.10 | 0.08 | 0.11 | 0.11 | 0.04 | logarithmic value of ratio of IC40 values [16]: 0.26
4 | C[C@@H]1C[C@@H]([C@H](O)CC2CC(=O)NC(=O)C2)C(=O)[C@@H](C)C1 [CHX, cycloheximide] | 0.00 | 0.12 | −0.19 | 0.04 | −0.42 | −0.13 | 0.31 | 0.85 | −0.08 | 0.00 | 0.74 | 0.08 | 0.39 | 0.00 | 0.37 | 0.10 | 0.34 | −0.30 | 0.00 | −0.43 | logarithmic value of ratio of IC40 values [16]: 0.07
